According to patent publication US5389621A, “Method of enhancing the anticoagulant effects of aspirin using salicylamide” (University of Medicine and Dentistry of New Jersey, priority 1994, dated 1995):
Read-outs that look alike come from different tables or passages of the source. Values belong to the compound of their own block, whether it stands above or below them.

How the values were obtained:
[1] = system: lyso-PAF:acetyl-CoA acetyltransferase; details: cited from earlier work
[2] = oral, rats; cited from earlier work
[3] = system: lipooxygenase pathway; details: cited from earlier work
[4] = system: cyclooxygenase; details: in vitro, cited from earlier work
[5] = Tightly protein-bound 14C radioactivity after 14C-aspirin; format: in vivo, male Sprague-Dawley rats
Method: (§1) Forty-eight rats were divided into two groups. The first group of rats was administered ASA, SAM or their combination in a dose approximately equal (w/w) to that in the commercially available combinations, e.g., BC® formula, when administered to humans, i.e., 10 and 3 mg/kg of ASA and SAM, respectively. The second group was administered double the dosage received by the first group.
The rats were anesthetized by light diethyl ether inhalation. A blood sample of nearly 3 ml was collected by cardiac puncture 1.5 hours after oral administration. The blood was transferred to chilled polyethylene tubes containing 30 μl of 50% (w/w) potassium fluoride to prevent hydrolysis of ASA. A 300 μl aliquot was pipetted in a scintillation vial to study the distribution in whole blood. The rest of the collected blood was immediately centrifuged at 1800×g for 10 minutes at 4° C. and the plasma was decanted. 100 μl of the plasma were pipetted in a scintillation vial for measurement of the total radioactivity and the rest of the plasma was stored immediately at -70° C. for later study of the distribution of the metabolites.
The plasma tightly protein-bound activity was measured by adding 100 μl of 10% trichloroacetic acid (TCA) to 100 μl of plasma in microcentrifuge tubes and vortexing the contents for 1 minute followed by centrifugation at 1800×g for 10 minutes. The supernatant was decanted and the tubes with the pellets in them were placed in scintillation vials each containing 15 ml of Aquasol-2 scintillation fluid. […] The radioactivity in the scintillation vials was counted in Beckman LS counter.

[6] = cited from earlier work
[7] = Acid-hydrolyzed fraction of SA in liver, kidney and plasma after 14C-aspirin; details: low or high dose combinations
Method: as §1
For each sample to be analyzed, 2 aliquots each of 300 mg of tissue (liver or kidney) or 100 μl of plasma, were placed in polyethylene wide-pore tubes (Fisherbrand) along with 0.5 ml of physiological saline. The tissues were homogenized using an electrical homogenizer (Polytron, Brinkmann Instruments, Westbury, N.Y.) on high speed for 2 minutes for each sample. The tubes were dipped in ice during this procedure to minimize any loss of SA by sublimation from the heat generated by the high speed of the homogenization.
The homogenates were transferred by pipette to pyrex screw-top test tubes and the tubes were then divided into 2 groups: […]
The supernatants were filtered through disposable 0.45 μm Acrodisc filters and 100 μl were injected onto HPLC. […] The radioactivity in the vials was measured by Beckman LS scintillation counter and the difference in radioactivity between the control vials and the acidhydrolyzed ones was indicative of SA conjugates as well as part of the protein-bound SA in the tissue samples. […]

[8] = 1.5 hr, oral 14C-ASA 10 mg/kg, alone or with SAM 3 mg/kg
[9] = 1.5 hr, oral 14C-ASA 20 mg/kg, alone or with SAM 6 mg/kg

Compound: CC(=O)Oc1ccccc1C(=O)O [ASA, acetylsalicylic acid]
- Effect on lyso-PAF:acetyl-CoA acetyltransferase [1]: inhibitory effect
- Intestinal and hepatic extraction and/or metabolism of oral dose [2]: More than 60%
- Effect on the lipooxygenase pathway [3]: reversibly block the lipooxygenase pathway

- Change of tightly protein-bound 14C, high dose ([5]; 14C-ASA with SAM 20/6 mg/kg): did not reach significant levels
- Change of tightly protein-bound 14C in kidney ([5]; low and high doses): not influenced
- Change of acid-hydrolyzed SA fraction in liver [7]: did not affect
Compound: NC(=O)c1ccccc1O [SAM, Salicylamide]
- Effect on cyclooxygenase [4]: no effect in vitro on cyclooxygenase
- Effect on cyclooxygenase ([4]; listed as salicylamide): does not have a demonstrable effect on the cyclooxygenase pathway in vitro
- Biliary excretion ([6]; in vivo): negligible
- Bound to plasma proteins ([6]; in vivo): About 50%
- Hydrolysis in vivo to a salicylate ([6]; in vivo): not hydrolyzed in vivo to form a salicylate
- First-pass metabolism of the administered dose ([6]; oral): up to 70%

Compound: CC(=O)Oc1ccccc1[14C](=O)O [^14 C-ASA]
- Tightly protein-bound 14C in heart [5, 8]: 2.30 ± 0.28 μg ^14 C/gm tissue
- Tightly protein-bound 14C in kidney [5, 8]: 3.85 ± 0.30 μg ^14 C/gm tissue
- Tightly protein-bound 14C in liver [5, 8]: 3.93 ± 0.04 μg ^14 C/gm tissue
- Tightly protein-bound 14C in lung [5, 8]: 1.62 ± 0.14 μg ^14 C/gm tissue
- Tightly protein-bound 14C in plasma [5, 8]: 26.95 ± 2.67 μg ^14 C/ml plasma
- Tightly protein-bound 14C in heart [5, 9]: 5.79 ± 0.40 μg ^14 C/gm tissue
- Tightly protein-bound 14C in kidney [5, 9]: 11.66 ± 0.29 μg ^14 C/gm tissue
- Tightly protein-bound 14C in liver [5, 9]: 9.81 ± 0.12 μg ^14 C/gm tissue
- Tightly protein-bound 14C in lung [5, 9]: 5.84 ± 0.40 μg ^14 C/gm tissue
